Numbering of substitutions follows the chain as printed. Where two headings read alike, the source gives them in different places.
What was measured:
sGC enzyme = molecular target: T1, sGC enzyme (Homo sapiens, UniProt Q02108+Q02153); test: cGMP GloSensor cell-based assay, 384-well format; settings: HEK293 cells expressing GloSensor 40F cGMP, 10 μM DETA-NONOate, normalized to 30 μM Compound Y
T1 construct: incorporated into these cells detect cGMP formed by the compounds stimulating the sGC enzyme; host or cells: HEK293 cells stably expressing GloSensor 40F cGMP biosensor
T1 sequence (Q02153 1-619): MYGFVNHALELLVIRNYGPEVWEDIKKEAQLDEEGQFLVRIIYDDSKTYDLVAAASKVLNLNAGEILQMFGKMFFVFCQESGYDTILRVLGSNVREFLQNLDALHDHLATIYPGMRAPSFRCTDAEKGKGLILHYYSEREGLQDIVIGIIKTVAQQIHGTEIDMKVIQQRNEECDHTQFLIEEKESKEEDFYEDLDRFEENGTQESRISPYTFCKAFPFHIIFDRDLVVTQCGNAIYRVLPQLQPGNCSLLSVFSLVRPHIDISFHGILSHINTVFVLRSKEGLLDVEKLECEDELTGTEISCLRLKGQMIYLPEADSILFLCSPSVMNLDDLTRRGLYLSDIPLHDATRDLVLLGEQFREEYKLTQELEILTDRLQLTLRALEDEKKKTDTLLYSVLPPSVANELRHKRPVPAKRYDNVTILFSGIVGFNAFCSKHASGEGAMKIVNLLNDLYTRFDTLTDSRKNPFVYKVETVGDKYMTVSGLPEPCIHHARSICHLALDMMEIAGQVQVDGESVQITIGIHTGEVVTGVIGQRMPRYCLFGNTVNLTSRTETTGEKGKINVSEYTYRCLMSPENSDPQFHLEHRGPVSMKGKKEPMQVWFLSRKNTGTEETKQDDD
T1 sequence (Q02108 1-690): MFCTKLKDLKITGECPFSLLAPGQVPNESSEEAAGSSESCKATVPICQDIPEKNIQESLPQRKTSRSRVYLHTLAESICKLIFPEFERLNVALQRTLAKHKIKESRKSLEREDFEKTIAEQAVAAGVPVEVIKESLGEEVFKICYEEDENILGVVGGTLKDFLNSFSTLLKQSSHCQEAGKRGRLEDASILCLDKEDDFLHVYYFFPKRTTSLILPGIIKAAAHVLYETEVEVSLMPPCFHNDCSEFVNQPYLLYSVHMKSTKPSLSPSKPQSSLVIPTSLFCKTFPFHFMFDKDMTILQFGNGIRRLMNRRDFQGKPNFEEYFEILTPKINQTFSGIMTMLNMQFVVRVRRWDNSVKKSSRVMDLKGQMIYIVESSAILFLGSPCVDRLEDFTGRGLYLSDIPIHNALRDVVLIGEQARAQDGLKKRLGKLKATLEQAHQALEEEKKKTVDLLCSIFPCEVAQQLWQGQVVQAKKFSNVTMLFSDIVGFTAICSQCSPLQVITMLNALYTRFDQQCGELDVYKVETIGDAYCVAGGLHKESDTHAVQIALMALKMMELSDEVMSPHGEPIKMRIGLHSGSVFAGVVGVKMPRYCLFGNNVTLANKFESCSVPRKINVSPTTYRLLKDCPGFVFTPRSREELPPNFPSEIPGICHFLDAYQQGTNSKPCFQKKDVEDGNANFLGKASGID
How it was run: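 HEK293 cells expressing GloSensor 40F cGMP luciferase biosensor, preloaded with 2 mM GloSensor substrate for 90 min at 25 °C. Endpoint luminescence read after 55 min compound incubation at room temperature.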

sGC = molecular target: T2, sGC (Rattus norvegicus, UniProt P20595); test: cGMP neuronal cell-based assay; settings: rat primary hippocampal neurons, 30 μM DETA-NO, cGMP by LC-MS/MS, normalized to 10 μM Compound Y
T2 construct: Rat primary neurons were isolated from fetuses of 18-day pregnant Sprague-Dawley females; endogenous in cells; host or cells: Primary rat hippocampal neurons (E18 Sprague-Dawley fetuses)
T2 sequence (P20595 1-619): T1 sequence (Q02153 1-619) with N171S, E205D, N247K, T299A, K615N, D618E, D619N
Method: Rat primary neurons were isolated from fetuses of 18-day pregnant Sprague-Dawley females. The fetuses were collected in Hanks' balanced salt solution (HBSS) and brains were rapidly removed. The cerebral hippocampi were isolated and mechanically fragmented. Further tissue digestion was performed with 0.25% (wt/vol) trypsin solution in HBSS without Ca2+ and Mg2+ for 15 min at 37° C. After trypsination, cells were washed and resuspended in neurobasal medium supplemented with 0.5 mM L-glutamine, 12.5 uM glutamic acid, 2% B-27 and 100U/mL penicillin, and 100 μg/mL streptomycin. Cells were plated at a density of 4×10^4 cells/well in a poly-D-lysine coated 384-well flat clear-bottom plate (Corning Cat No 354662). Cells were incubated 6-7 days at 37° C. in a humidified chamber with 5% CO2. Media was removed and cells were washed 1× with HBSS containing Ca2+ and Mg2+, and replaced with 40 uL HBSS containing 0.5 mM IBMX, and incubated for 15 minutes at 37° C. 10 uL of a 5× stock of test compounds with diethylenetriamine NONOate (DETA-NO) was added. Final concentration of DETA-NO was 30 μM. Cells were incubated for 20 min at 37° C. Medium was removed, 50 uL of ice-cold 10% acetic acid was added, and incubated for 60 minutes at 4° C. Following centrifugation at 4° C. for 5 minutes at 1000×g to pellet cell debris, the supernatant was aspirated to a clean plate and the samples were analyzed for cGMP content. cGMP concentrations were determined from each sample using LC-MS/MS.
Data were normalized to a high control using the following equation: 100*(Sample−Low Control)/(High Control−Low Control), where the low control is the average of 15 samples treated with 1% DMSO, and the high control is the average of 15 samples treated with 10 μM of the known sGC stimulator Compound Y (depicted in Example 2). Data were fit using a 4-parameter fit (log(agonist) vs. response—variable slope) using GraphPad Prism Software v.5. n=2 for all compounds. The Absolute EC50 was interpolated from the curve fit and is defined as the concentration at which a given compound elicits 50% of the high control response after data normalization. Compounds failing to elicit a minimum response of 50% are reported as >30 μM. For compounds run in duplicate or n higher than 2, the result herein given is the geometric mean of the several results obtained.

[1] = compounds in Table IA, read-out: Glo-sensor AbsEC50
[2] = compounds in Table IA, read-out: sGC-neuron Abs EC50

Row | Compound | EC50 (sGC enzyme; [1]) | EC50 (sGC; [2]) | EC50 (sGC enzyme; compounds in Table IB, read-out: Glo-sensor Abs EC50) | EC50 (sGC; compounds in Table IB, read-out: sGC-Neuron Abs EC50)
1 | Fc1ccc(F)c(Cc2nn(-c3nc(C(F)(F)F)n[nH]3)c3cccnc23)c1 [Compound I-130, 3-(2,5-Difluorobenzyl)-1-(3-(trifluoromethyl)-1H-1,2,4-triazol-5-yl)-1H-pyrazolo[4,3-b]pyridine] | < 100 nM | ≤ 100 nM |  | 
2 | FC(F)(F)c1n[nH]c(-c2nc(CCC(F)(F)C(F)(F)F)c3ccccn23)n1 [Compound I-9] |  |  | 100 to 1000 nM | 100 to 1000 nM
3 | Fc1cccc(Cc2nn(-c3nc(C(F)F)n[nH]3)c3cccnc23)c1F [Compound I-127, 3-(2,3-Difluorobenzyl)-1-(3-(difluoromethyl)-1H-1,2,4-triazol-5-yl)-1H-pyrazolo[4,3-b]pyridine] | 100 to 1000 nM | ≤ 100 nM |  | 
